The values below come from patent US8969299B2, “Therapeutic agents for regulating serum phosphorus” (KAI Pharmaceuticals, Inc., priority 2011, dated 2015).

Structures are written as SMILES. Peptide text beside a SMILES is read from it. Bounds are passed on as bounds.

One experiment has as its system 1K1C model animals. Kind of experiment: plasma PTH reduction after 30-minute IV infusion in 1K1C model animals. The format is in vivo. The conditions noted are these: 3 mg/kg; for effect on plasma PTH: 30-minute IV infusion; for mean PTH reduction: 24 hour time point. From the text:
These compounds include (i) Ac-crrrr-NH2 (SEQ ID NO:4), (ii) Ac-crrrrr-NH2 (SEQ ID NO:5), (iii) Ac-crrrrrr-NH2 (SEQ ID NO:6), and (iv) Ac-crrrrrrr-NH2 (SEQ ID NO:7). In previous studies, the compounds identified as SEQ ID NO:4, SEQ ID NO:5, SEQ ID NO:6 and SEQ ID NO:7 were each administered by a 30-minute IV infusion to 1K1C model animals and effected a reduction in plasma PTH levels as a percent of the pre-dosing (baseline) level. […] These latter two compounds produced a mean PTH reduction of ˜40% and 60% at the 24 hour time point, respectively. It should be noted that the compounds in this study were administered at the same mg/kg dose but, due to differences in molecular weight, a different number of moles of each compound was actually dosed.

The next experiment deals with normal rats. Kind of experiment: PTH reduction in vivo in normal rats. The conditions noted are these: for decrease in percent PTH: after a single IV administration in normal rats. More on the design: species or system rat. The procedure:
The data illustrate that cationic and uncharged residues at different positions are not all equal and there are changes in activity as a result of change in the compound structure.
The structure-activity relationship of the thiol-containing group in the X1 subunit of the compound was further analyzed by preparing compounds with differing X1 subunits. The compounds, were tested in vivo in normal rats for activity to reduce PTH. The data illustrated that the thiol-containing X1 subunit can be varied. Compounds with the following in the N-terminal residue were tested—D-cysteine (cys), D-penicillamine (dPen), d-homocysteine (dHcy) and mercaptopropionic acid (Mpa). In addition, a natural or non-natural amino acid, such as beta alanine, can be conjugated to the N-terminal thiol-containing residue. The data illustrated that cationic compounds such as […] (SEQ ID NO:6) containing different thiol-containing groups in the X1 subunit effectively reduce PTH in vivo.
In another study of the structure activity relationship, the contribution of non-cationic amino acids to the potency of the peptides was evaluated by preparing a series of peptides with various D-amino acid residues or glycine or with sterically-hindered non-natural amino acids, substituted at various positions in the peptide Ac-carrrar-NH2 (SEQ ID NO:26) and in the peptide Ac-crrarar-NH2 (SEQ ID NO:153). The peptides were administered as an IV bolus to normal Sprague Dawley rats at a dose of 0.5 mg/kg. An intravenous (IV) bolus of saline was used as a control. Plasma PTH levels were assessed prior to dosing and 1, 2, 3 and 4 hours after dosing.

A further experiment concerns PTH blood concentration. In words: in vivo PTH-lowering activity (species not stated). As for the experimental part:
The contribution of the thiol-containing group in the X1 subunit of the compound (e.g., in certain embodiments where the compound is a peptide on the N-terminal residue), was also investigated in an in vivo study. The PTH-lowering activity of the peptides identified as SEQ ID NO:26 (Ac-carrrar-NH2) and as SEQ ID NO:29 (Ac-arrrar-NH2) was evaluated in vivo.

For a further experiment, the target named is T1, human CaSR (Homo sapiens, UniProt P41180).
T1 construct: expressed in transfected cells; host or cells: HEK293
T1 sequence (P41180 20-1078): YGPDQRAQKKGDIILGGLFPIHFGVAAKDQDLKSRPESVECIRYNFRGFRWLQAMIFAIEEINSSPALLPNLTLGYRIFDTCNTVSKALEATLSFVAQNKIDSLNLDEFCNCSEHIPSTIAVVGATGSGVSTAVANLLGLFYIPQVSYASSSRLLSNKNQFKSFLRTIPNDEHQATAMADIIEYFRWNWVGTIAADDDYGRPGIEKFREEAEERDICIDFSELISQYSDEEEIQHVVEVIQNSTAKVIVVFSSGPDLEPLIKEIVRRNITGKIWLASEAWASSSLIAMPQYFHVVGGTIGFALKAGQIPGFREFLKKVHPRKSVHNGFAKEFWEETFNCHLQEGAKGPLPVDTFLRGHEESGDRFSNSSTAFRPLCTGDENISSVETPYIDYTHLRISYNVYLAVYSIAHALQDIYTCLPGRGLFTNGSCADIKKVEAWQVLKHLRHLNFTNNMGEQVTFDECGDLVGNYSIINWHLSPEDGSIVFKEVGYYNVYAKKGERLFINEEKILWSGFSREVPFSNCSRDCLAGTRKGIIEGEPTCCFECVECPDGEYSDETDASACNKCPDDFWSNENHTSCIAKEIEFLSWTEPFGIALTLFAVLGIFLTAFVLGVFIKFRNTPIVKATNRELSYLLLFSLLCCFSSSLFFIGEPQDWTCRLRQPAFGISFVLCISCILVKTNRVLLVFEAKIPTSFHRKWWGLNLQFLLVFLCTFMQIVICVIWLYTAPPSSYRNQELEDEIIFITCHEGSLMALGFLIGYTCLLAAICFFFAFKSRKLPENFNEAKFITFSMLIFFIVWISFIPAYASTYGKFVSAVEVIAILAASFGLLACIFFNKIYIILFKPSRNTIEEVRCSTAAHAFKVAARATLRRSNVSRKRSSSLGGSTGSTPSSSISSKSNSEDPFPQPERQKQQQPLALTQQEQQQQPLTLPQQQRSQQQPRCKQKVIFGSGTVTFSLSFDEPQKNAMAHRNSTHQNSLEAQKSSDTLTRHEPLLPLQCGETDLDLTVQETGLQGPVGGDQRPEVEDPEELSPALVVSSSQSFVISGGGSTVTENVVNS
In words: IP1 production in HEK293 cells that express the human CaSR. The experiment is classed as cell-based. The settings on record: HEK 293 cells.

Protocol for human CaSR: The compounds were characterized in an in vitro human calcium-sensing receptor (CaSR) assay, wherein HEK 293 cells that express the human calcium-sensing receptor were used to measure activity of exemplary compounds.
Further structure-activity relationship studies were conducted using the in vitro cell assay in HEK 293 cells that express the human calcium-sensing receptor.
The activity of a variety of peptides and conjugates was tested for their effects on the human CaSR. These studies were conducted by measuring IP1 production in HEK293 cells that express the human CaSR.

With `CC(=O)N[C@H](CS)C(=O)N[C@H](CCCNC(=N)N)C(=O)N[C@H](CCCNC(=N)N)C(=O)N[C@H](CCCNC(=N)N)C(=O)N[C@H](CCCNC(=N)N)C(=O)N[C@H](CCCNC(=N)N)C(N)=O` [SEQ ID NO: 5, Ac-crrrrr-NH2] (HELM PEPTIDE1{[ac].[dC].[dR].[dR].[dR].[dR].[dR].[am]}$$$$V2.0), in the experiment with 1K1C model animals, the “effect on plasma PTH” value was “significant drop in plasma PTH” and the “mean PTH reduction” value is 60%.
As to `CC(=O)N[C@H](CS)C(=O)N[C@H](CCCNC(=N)N)C(=O)N[C@H](CCCNC(=N)N)C(=O)N[C@H](CCCNC(=N)N)C(=O)N[C@H](CCCNC(=N)N)C(=O)N[C@H](CCCNC(=N)N)C(=O)N[C@H](CCCNC(=N)N)C(N)=O` [SEQ ID NO: 6, Ac-crrrrrr-NH2], in the experiment on normal rats, the “decrease in percent PTH” value is “below the detection limit or essentially zero”. In addition, the “in vivo activity in comparison” value in the experiment with PTH blood concentration (compared with SEQ ID NO:41) was “greater and more prolonged activity than Ac-crrrrrrrr-NH2 (SEQ ID NO:41)”. Besides, in the experiment with 1K1C model animals, the “effect on plasma PTH” value is on record as “significant drop in plasma PTH” and the “mean PTH reduction” value is given as roughly 40%.
In the case of `CC(=O)N[C@H](CS)C(=O)N[C@H](CCCNC(=N)N)C(=O)N[C@H](CCCNC(=N)N)C(=O)N[C@H](CCCNC(=N)N)C(=O)N[C@H](CCCNC(=N)N)C(=O)N[C@H](CCCNC(=N)N)C(=O)N[C@H](CCCNC(=N)N)C(=O)N[C@H](CCCNC(=N)N)C(N)=O` [SEQ ID NO: 7, Ac-crrrrrrr-NH2] (HELM PEPTIDE1{[ac].[dC].[dR].[dR].[dR].[dR].[dR].[dR].[dR].[am]}$$$$V2.0), the “effect on plasma PTH” value with 1K1C model animals is listed as “significant drop in plasma PTH”.
On to `CC(=O)N[C@H](CS)C(=O)N[C@H](C)C(=O)N[C@H](CCCNC(=N)N)C(=O)N[C@H](CCCNC(=N)N)C(=O)N[C@H](CCCNC(=N)N)C(=O)N[C@H](CCCNC(=N)N)C(=O)N[C@H](CCCNC(=N)N)C(N)=O` [SEQ ID NO: 8, Ac-carrrrr-NH2] (HELM PEPTIDE1{[ac].[dC].[dA].[dR].[dR].[dR].[dR].[dR].[am]}$$$$V2.0), for which, in the experiment with normal rats, the “decrease in percent PTH” value is given as “below the detection limit or essentially zero”.
The same measure, in the same setting: then `CC(=O)N[C@H](CS)C(=O)N[C@H](CCCNC(=N)N)C(=O)N[C@H](CCCNC(=N)N)C(=O)N[C@H](C)C(=O)N[C@H](CCCNC(=N)N)C(=O)N[C@H](CCCNC(=N)N)C(=O)N[C@H](CCCNC(=N)N)C(N)=O` [SEQ ID NO: 10, Ac-crrarrr-NH2] (HELM PEPTIDE1{[ac].[dC].[dR].[dR].[dA].[dR].[dR].[dR].[am]}$$$$V2.0), with “below the detection limit or essentially zero”.
For `CC(=O)N[C@H](CS)C(=O)N[C@H](CCCNC(=N)N)C(=O)N[C@H](CCCNC(=N)N)C(=O)N[C@H](CCCNC(=N)N)C(=O)N[C@H](C)C(=O)N[C@H](CCCNC(=N)N)C(=O)N[C@H](CCCNC(=N)N)C(N)=O` [SEQ ID NO: 11, Ac-crrrarr-NH2] (HELM PEPTIDE1{[ac].[dC].[dR].[dR].[dR].[dA].[dR].[dR].[am]}$$$$V2.0), in the experiment with normal rats (single IV administration), the “in vivo percent PTH AUC reduction” value is 45%. Besides, the “reduction in in vitro potency relative to Ac-crrrrrr-NH2 (SEQ ID NO:6)” value at human CaSR is listed as 5-10 fold.
For the molecule `CC(=O)N[C@H](CS)C(=O)N[C@H](C)C(=O)N[C@H](CCCNC(=N)N)C(=O)N[C@H](C)C(=O)N[C@H](CCCNC(=N)N)C(=O)N[C@H](CCCNC(=N)N)C(=O)N[C@H](CCCNC(=N)N)C(N)=O` [SEQ ID NO: 15, Ac-cararrr-NH2] (HELM PEPTIDE1{[ac].[dC].[dA].[dR].[dA].[dR].[dR].[dR].[am]}$$$$V2.0), the “ability to activate the CaSR in vitro, in words” value (“ability to activate the CaSR” below) at human CaSR was “significantly reduced potency in vitro in activating the CaSR”.
In the case of `CC(=O)N[C@H](CS)C(=O)N[C@H](C)C(=O)N[C@H](CCCNC(=N)N)C(=O)N[C@H](CCCNC(=N)N)C(=O)N[C@H](CCCNC(=N)N)C(=O)N[C@H](C)C(=O)N[C@H](CCCNC(=N)N)C(N)=O` [SEQ ID NO: 26, Ac-carrrar-NH2], the PTH blood concentration entry with PTH blood concentration (0.5 mg/kg dose) was “decreased PTH blood concentration to a non-detectable level for up to 4 hours after dosing”. At human CaSR, the “ability to activate the CaSR” value is “retained much of the potency seen with Ac-crrrrrr-NH2 (SEQ ID NO:6)” and the “reduction in in vitro potency relative to Ac-crrrrrr-NH2 (SEQ ID NO:6)” value was −3 fold.
For `CC(=O)N[C@H](C)C(=O)N[C@H](CCCNC(=N)N)C(=O)N[C@H](CCCNC(=N)N)C(=O)N[C@H](CCCNC(=N)N)C(=O)N[C@H](C)C(=O)N[C@H](CCCNC(=N)N)C(N)=O` [SEQ ID NO: 29, Ac-arrrar-NH2] (HELM PEPTIDE1{[ac].[dA].[dR].[dR].[dR].[dA].[dR].[am]}$$$$V2.0), in the experiment with PTH blood concentration (9 mg/kg dose), the PTH concentration entry is given as “did not reduce PTH concentration”. Further, the “ability to activate the CaSR” value on human CaSR was “dramatically reduced the ability of the compound to activate the CaSR”.
With `CC(=O)N[C@H](CS)C(=O)N[C@H](CCCNC(=N)N)C(=O)N[C@H](CCCNC(=N)N)C(=O)N[C@H](CCCNC(=N)N)C(=O)N[C@H](CCCNC(=N)N)C(=O)N[C@H](CCCNC(=N)N)C(=O)N[C@H](CCCNC(=N)N)C(=O)N[C@H](CCCNC(=N)N)C(=O)N[C@H](CCCNC(=N)N)C(N)=O` [SEQ ID NO: 41, Ac-crrrrrrrr-NH2] (HELM PEPTIDE1{[ac].[dC].[dR].[dR].[dR].[dR].[dR].[dR].[dR].[dR].[am]}$$$$V2.0), the “ability to activate the CaSR” value at human CaSR is recorded as “more potent at activating the CaSR”.
Regarding `CC(=O)N[C@@H](CS)C(=O)N[C@H](C)C(=O)N[C@@H](CCCNC(=N)N)C(=O)N[C@H](CCCNC(=N)N)C(=O)N[C@@H](CCCNC(=N)N)C(=O)N[C@H](C)C(=O)N[C@@H](CCCNC(=N)N)C(N)=O` [SEQ ID NO: 44, Ac-CaRrRaR-NH2], at human CaSR, the “decrease in potency relative to Ac-carrrar-NH2 (SEQ ID NO:26)” value is on record as less than 4 fold and the “reduction in in vitro potency relative to Ac-crrrrrr-NH2 (SEQ ID NO:6)” value turned out to be 10 fold.
